From PubChem BioAssay AID375 (SRMLSC, 2006)

Each compound was assayed against Pantothenate synthetase (Mycobacterium tuberculosis (strain ATCC 25618 / H37Rv)) (UniProt P9WIL5) (assay: Recombinant Mtb pantothenate synthetase (PanC) inhibitors, coupled enzyme, confirmatory (AID 375)). Details: coupled enzyme assay, measured here: PanC IC50 repeat trials.
Chain of Pantothenate synthetase (Mycobacterium tuberculosis (strain ATCC 25618 / H37Rv)) (P9WIL5 whole entry, looked up): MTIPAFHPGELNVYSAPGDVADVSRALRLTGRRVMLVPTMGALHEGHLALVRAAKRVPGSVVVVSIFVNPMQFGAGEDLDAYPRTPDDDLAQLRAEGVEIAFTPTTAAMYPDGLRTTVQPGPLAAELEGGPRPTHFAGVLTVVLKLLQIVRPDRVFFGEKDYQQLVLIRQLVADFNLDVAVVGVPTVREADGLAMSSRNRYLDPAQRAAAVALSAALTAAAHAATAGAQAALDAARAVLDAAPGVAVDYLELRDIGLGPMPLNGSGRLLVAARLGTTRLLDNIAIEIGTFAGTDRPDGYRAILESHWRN

Cc1cc(NC(=O)c2noc3c2CCCCC3)nn1Cc1ccc(Cl)cc1 and Cc1cc(NC(=O)c2noc3c2CCCC3)nn1Cc1ccc(Cl)cc1 cannot be ordered by IC50: > 100 µM for the first, > 100 µM for the second.

COc1ccc(-c2cc(C(=O)Nc3cc(C)n(Cc4ccc(Cl)cc4)n3)no2)cc1OC and COc1ccc(OC)c(-c2cc(C(=O)Nc3cc(C)n(Cc4ccc(Cl)cc4)n3)no2)c1 cannot be ordered by IC50: > 100 µM for the first, > 100 µM for the second.

CC(C)(C)C1CCc2onc(C(=O)Nc3cnn(Cc4ccc(F)cc4)c3)c2C1 (stereo not drawn) and Cc1ccccc1Cn1cc(NC(=O)c2noc3c2CC(C(C)(C)C)CC3)cn1 (stereo not drawn) are within 1.5-fold of each other in IC50: 1.71 µM for the first, 2.56 µM for the second.

Cc1cc(NC(=O)c2cc(-c3cccs3)on2)nn1Cc1ccc(Cl)cc1 and Cc1cc(NC(=O)c2cc(-c3ccco3)on2)nn1Cc1ccc(Cl)cc1 cannot be ordered by IC50: > 100 µM for the first, > 100 µM for the second.

COc1cccc(-c2cc(C(=O)Nc3cc(C)n(Cc4ccc(Cl)cc4)n3)no2)c1 and COc1ccccc1-c1cc(C(=O)Nc2cc(C)n(Cc3ccc(Cl)cc3)n2)no1 cannot be ordered by IC50: > 100 µM for the first, > 100 µM for the second.

Cc1ccc(Cn2ccc(NC(=O)c3noc4c3CCCC4)n2)cc1 and Cc1ccc(Cn2ccc(NC(=O)c3noc4c3CCCCC4)n2)cc1 cannot be ordered by IC50: > 100 µM for the first, > 100 µM for the second.

COc1ccc2c(c1)CCc1c(C(=O)Nc3ccn(Cc4ccc(C)cc4)n3)noc1-2 and COc1ccc2c(c1)CCc1c(C(=O)Nc3cc(C)n(Cc4ccc(Cl)cc4)n3)noc1-2 cannot be ordered by IC50: > 100 µM for the first, > 100 µM for the second.

Cc1ccc(Cn2ccc(NC(=O)c3cc(-c4ccccc4)on3)n2)cc1 and Cc1ccc(Cn2ccc(NC(=O)c3cc(-c4cccc(Cl)c4)on3)n2)cc1 cannot be ordered by IC50: > 100 µM for the first, > 100 µM for the second.

Cc1cc(C(=O)Nc2cc(C)n(Cc3ccc(Cl)cc3)n2)no1 and Cc1ccc(Cn2ccc(NC(=O)c3cc(-c4ccc(Cl)cc4)on3)n2)cc1 cannot be ordered by IC50: > 100 µM for the first, > 100 µM for the second.

Cc1ccc(Cn2ccc(NC(=O)c3cc(-c4ccc(Br)cc4)on3)n2)cc1 and Cc1ccc(Cn2ccc(NC(=O)c3cc(-c4ccc(F)cc4)on3)n2)cc1 cannot be ordered by IC50: > 100 µM for the first, > 100 µM for the second.

Cc1ccc(Cn2ccc(NC(=O)c3cc(-c4cccs4)on3)n2)cc1 and Cc1ccc(Cn2ccc(NC(=O)c3cc(-c4ccco4)on3)n2)cc1 cannot be ordered by IC50: > 100 µM for the first, > 100 µM for the second.

For Cc1ccccc1Cn1nc(C)c(NC(=O)c2noc3c2CC(C(C)(C)C)CC3)c1C (stereo not drawn), the IC50 was > 100 µM.
